For data set [1], the system named is MCF-7 breast cancer cells. Kind of data set: SRB cytotoxicity assay, MCF-7. Type of data set: cell-based. The conditions noted are these: Homo sapiens, MCF7; SRB assay, 96 h incubation, mean ± SD; read-out: IC50 MCF-7. How it is done: (§1) All of the compounds were dissolved in dimethyl sulfoxide (DMSO) to achieve a 20 mM stock solution. Cells were seeded in cell culture flasks 24 h before treatment. The treatment was performed for 24 h.
(§2) The cytotoxicity of the drugs was determined in 2D tumor models using sulforhodamine B (SRB) assays. Treatment started 24 h after seeding the tumor cells in 96-well plates as previously described.

The next data set has as its system A375 melanoma cells. Kind of data set: SRB cytotoxicity assay, A375. As to conditions: Homo sapiens, A-375; SRB assay, 96 h incubation, mean ± SD; read-out: IC50 A375. Type of data set: cell-based. As to the method: as §1, §2
The next data set relates to MDA-MB-231 spheroids. Nature of the data set: Spheroid cytotoxicity assay (luciferase), MDA-MB-231. Type of data set: cell-based, human. As to conditions: Homo sapiens, MDA-MB-231, 168 h; 7 days of treatment, 3 independent experiments; read-out: IC50 MDA-MB-231 spheroids. As to the method:
(§3) To determine cytotoxicity in the 3D tumor models, spheroid cytotoxicity assays were performed as previously described. […] For generation of single tumor spheroids, tumor cells resuspended in culture medium were seeded into 96-well plates, which were coated before with 0.7% agarose (SeaKem® GTG™ Agarose, Lonza, Basel, Switzerland). After the formation of spheroids (48 h), they were treated with serial dilutions of compounds. Measurements of luciferase activity were performed on day 7, after supplementation with D-luciferin (Perkin Elmer, Rodgau, Germany), on a Tecan Spark microplate reader (Tecan, Männedorf, Switzerland). Generation of dose-response curves and calculation of IC50 values including standard deviations were accomplished using GraphPad Prism8.
(§4) Since the tumor cells stably express luciferase, analysis of spheroid growth and response to therapy is accomplished by measurement of bioluminescent signal intensity.

For data set [2], the system named is A2780 ovarian cancer cells. Kind of data set: SRB cytotoxicity assay, A2780. The conditions noted are these: Homo sapiens, A2780; SRB assay, 96 h incubation, mean ± SD; read-out: IC50 A2780. Type of data set: cell-based. As to the method: as §1, §2
For data set [3], the target named is recombinant human carbonic anhydrase IX (Homo sapiens, UniProt Q16790). Nature of the data set: hCA IX esterase assay with p-nitrophenyl acetate.
Procedure: In this measurement, the enzymatically catalyzed hydrolysis of p-nitrophenyl acetate to p-nitrophenol was investigated. […] This was followed by measurement of the v-S-characteristics with inhibitor. […] For each run, 2 experimental series (biological replicate) were prepared simultaneously and measured for 10 min at a measurement interval of 8 s, also as a two-fold determination (technical replicate). […] The resulting reaction velocities, calculated from a calibration curve with p-nitrophenole under the same conditions, were plotted against the substrate concentration. The kinetic evaluation for competitive inhibition was then performed with the program GraphPad Prism.
Data set [4] has as its system Hs578T spheroids. Nature of the data set: Spheroid cytotoxicity assay (luciferase), Hs578T. Type of data set: cell-based, human. The conditions noted are these: Homo sapiens, Hs-578T, 168 h; 7 days of treatment, 3 independent experiments; read-out: IC50 Hs578T spheroids. As to the method: as §3, §4
Data set [5] relates to Hs578T spheroids. Also on record: method as in PMID 36780832. As to conditions: Hs578T versus MDA-MB-231 spheroids; cited from earlier work.
Another data set deals with hypoxia-induced hCA IX (Homo sapiens, UniProt Q16790). Kind of data set: Cell-based hCA IX inhibition, Wilbur-Anderson method, hypoxic Hs578T cells. As to conditions: 20 µM, 3 h, vs untreated hypoxic cells.

Procedure for hypoxia-induced hCA IX: In a cell-based system, the changes of extracellular pH due to activity of hypoxia-induced hCA IX were determined. Hydration of CO2 to hydrogen carbonate and a proton catalyzed by extracellular hCA IX are the basis for detecting changes in pH depending on activity of hCA IX. Breast cancer cells (Hs578T) were cultured under hypoxic conditions for induction of hCA IX expression and afterwards treated with 20 µM of each substance for 3 h. Normoxic and hypoxic cells without treatment were used as reference. Cells were washed, scraped down, and resuspended in ice-cold isotonic buffer.

In turn, `C=C(C)C1CCC2(C(=O)NCCOCCOC(=O)CCC(=O)Nc3nnc(S(N)(=O)=O)s3)CCC3(C)C(CCC4C5(C)CCC(OC(C)=O)C(C)(C)C5CCC43C)C12` (centres unmarked) [Compound 12] had a melting point of 92 to 94 °C. In addition, in [1], the IC50 is greater than 100 µM. Moreover, in the data set with A375 melanoma cells, the IC50 was greater than 100 µM. Besides, the IC50 in the data set with MDA-MB-231 spheroids was greater than 100 µM. Besides, in [2], the 50% inhibitory concentration (IC50) stood at 35.1 ± 3.4 µM. Also, the “reduction of hCA IX activity” value in data set [3] (10 µM of the compound, p-nitrophenyl acetate) is reported as 40%. For the same molecule, the remaining activity at 10 µM in data set [3] (read-out: residual activity (r.a.) of hCA IX) came out at 60%. Besides, in the data set with Hs578T spheroids [4], the half-inhibitory concentration (IC50) is greater than 100 µM.

Consider `C=C(C)C1CCC2(C(=O)NCCOCCOC(=O)CCC(=O)O)CCC3(C)C(CCC4C5(C)CCC(OC(C)=O)C(C)(C)C5CCC43C)C12` (centres unmarked) [Compound 11], for which the melting point is 78 to 82 °C. The 50% inhibitory concentration (IC50) in [1] was determined as 7.3 ± 0.4 µM. Also, in the data set on A375 melanoma cells, the IC50 was found to be 10.5 ± 0.6 µM. Further, the half-maximal inhibitory concentration (IC50) in data set [2] stood at 12.3 ± 1.5 µM.

In the case of `CC(=O)O[C@H]1C(=O)[C@@]2(C)[C@H]([C@H](OC(=O)c3ccccc3)[C@]3(O)C[C@H](OC(=O)[C@H](O)[C@@H](NC(=O)c4ccccc4)c4ccccc4)C(C)=C1C3(C)C)[C@]1(OC(C)=O)CO[C@@H]1C[C@@H]2O` [paclitaxel], in the data set with Hs578T spheroids [5], the “resistance of Hs578T spheroids” value was 20 fold.

With `C=C(C)[C@@H]1CC[C@]2(C(=O)O)CC[C@]3(C)[C@H](CC[C@@H]4[C@@]5(C)CC[C@H](O)C(C)(C)[C@@H]5CC[C@]43C)[C@@H]12` [BA, betulinic acid], the half-maximal inhibitory concentration (IC50) in data set [1] was found to be 13 ± 1 µM; in the data set on A375 melanoma cells, 13.1 ± 0.9 µM; in data set [2], 12.5 ± 1.8 µM. Besides, the “Ki Values of hCA IX” value in data set [3] (p-nitrophenyl acetate substrate, competitive inhibition, pH 7.5, 20 °C) is recorded as “n.i”. Also, the “inhibition of hypoxia-induced hCA IX activity (relative WAU)” value against hypoxia-induced hCA IX is reported as “no potential to inhibit hCA IX activity”.

`COc1cccc2c1C(=O)c1c(O)c3c(c(O)c1C2=O)C[C@@](O)(C(=O)CO)C[C@@H]3O[C@H]1C[C@H](N)[C@H](O)[C@H](C)O1` [doxorubicin]: the “resistance of Hs578T spheroids” value with Hs578T spheroids [5] is 60 fold.

For the molecule `C=C(C)C1CCC2(C(=O)NCCOCCO)CCC3(C)C(CCC4C5(C)CCC(OC(C)=O)C(C)(C)C5CCC43C)C12` (centres unmarked) [Compound 10], the melting point came out at 205 °C. The IC50 in [1] was 5.9 ± 0.2 µM. Moreover, in the data set with A375 melanoma cells, the IC50 stood at 4.3 ± 0.2 µM. The half-maximal inhibitory concentration (IC50) in [2] is 9.5 ± 0.9 µM.
